From patent publication US7947647B2, “Synthetic mimics of mammalian cell surface receptors: method and compositions” (The Penn State Research Foundation, priority 2004, dated 2011)
“And” between values parts separate entries of the source, which are not always exact repeats. Identical values can stand only once.

Columns and labels:
[1] = system: Jurkat lymphocytes; type: cell-based
Experimental: Analysis of cytotoxicity of protein delivery.
To examine the toxicity of this metal acetate and protein delivery, cellular viability was examined by flow cytometry. In these experiments, Jurkat lymphocytes were treated with receptor 1 (10 μM, 1 h), followed by AcGFP(His)10 (3.2 μM), and Ni(OAc)2 (100 μM, 4 h) to enhance protein uptake by 600-fold. Cells were washed with disodium NTA to remove cell surface protein and were cultured for an additional 48 h. Cellular viability was determined by light scattering and staining the nuclei of membrane-compromised dead cells with the fluorophore propidium iodide. Under these conditions, 97% of the cells were viable, compared with 98.6% of untreated controls, and no effects on cellular morphology were observed. Other studies have similarly reported low toxicity of nickel salts at <160 μM in cell culture.^14 By enabling common oligohistidine affinity tags to function as cell penetrating peptides, synthetic receptor 1 provides a potentially versatile new probe of cellular biology.

[2] = system: Jurkat lymphocytes; test: Uptake of AcGFP-oligohistidine fusion proteins (flow cytometry); type: cell-based, human; details: receptor 10 μM preloaded 1 h, protein 3.2 μM, Ni(OAc)2 100 μM
Experimental: FIG. 25. Analysis of cellular uptake of His-tagged AcGFP proteins by flow cytometry. Each bar represents the average fluorescence of 10,000 cells. Unless otherwise noted, cellular plasma membranes of Jurkat lymphocytes were preloaded with receptor 1 (10 μM) for 1 h at 37° C., cells were washed with fresh media, and His-tagged AcGFP (3.2 μM)/metal diacetate solution (100 μM) was added for 4 h at 37° C. Prior to analysis, cells were washed with NTA (400 μM, 30 min) in PBS (pH 7.4) to remove bound surface protein. Panel A: Dose dependence of receptor-mediated uptake. Premix conditions: a solution containing receptor 1, Ni(OAc)2, and AcGFP(His)10 was added to cells for 4 h. Panel B: Dependence on [Ni(OAc)2]. Panel C: Omission control experiments. Panel D; Uptake of (His)6 and (His)10 fusion proteins promoted by different metal diacetates.
Preload conditions: To Jurkat lymphocytes (7×10^5) in RPMI media (0.5 mL) was added synthetic receptor 1 (typical final [Receptor 1]=10 μM) in DMSO (final [DMSO]=1%). These cells were incubated at 37° C. for 1 h to load the receptor into cellular plasma membranes. The cells were washed with RPMI media (0.5 mL) to remove unincorporated receptor/DMSO and resuspended in fresh media (87.6 μL). […]

CC(C)CCC[C@@H](C)[C@H]1CC[C@H]2[C@@H]3CC=C4C[C@@H](NCCCCC(=O)NCCC(=O)NCCC(=O)NCCCCC(C(=O)O)N(CC(=O)O)CC(=O)O)CC[C@]4(C)[C@H]3CC[C@]12C (stereo partly drawn) [receptor 1, 4-Carboxy-3-(carboxymethyl)-22-[(3β)-cholest-5-en-3-ylamino]-10,14,18-trioxo-3,9,13,17-tetraazadocosan-1-oic acid]
effects on viability or cellular morphology [1]: No significant effects on viability or cellular morphology were observed | cells viable ([1]; human, 10 μM): 97% | intracellular delivery of AcGFP(His)10 above basal levels of endocytosis [2]: > 600 fold and 600 fold
